Results reported in patent publication US20250188085A1, “COMPOSITIONS AND METHODS FOR INHIBITION OF RAS” (THERAS, INC., priority 2022, published 2025).

What was measured:
[1] = biological target: T1, GppNHp-loaded KRAS4b (amino acids 1-169) G12C/C118S protein (Homo sapiens, UniProt P01116, C118S/G12C); experiment: Covalent cysteine 12 modification by MALDI-TOF MS, GppNHp-loaded KRAS G12C; assay type: binding; conditions: 15 minutes reaction time point
T1 construct: KRAS4b (amino acids 1-169) G12C/C118S protein; made in house
In short: (§1)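 KRAS4b 1-169 G12C/C118S loaded with GDP, GppNHp or GTP was used at 1 μM in 20 mM HEPES, 150 mM NaCl, 1 mM MgCl2, pH 7.3, and incubated with compound (5 mM DMSO stock) at room temperature in the dark. % modification at 15 min is adduct peak height over total protein peak heights by linear-mode MALDI-TOF.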

[2] = biological target: T2, GTP-loaded KRAS4b (amino acids 1-169) G12C/C118S protein (Homo sapiens, UniProt P01116, C118S/G12C); experiment: Covalent cysteine 12 modification by MALDI-TOF MS, GTP-loaded KRAS G12C; assay type: binding; conditions: 15 minutes reaction time point
T2 construct: KRAS4b (amino acids 1-169) G12C/C118S protein; made in house
Description: Reaction: 1 μM of GppNHp-, GTP-, or GDP-loaded KRAS4b (amino acids 1-169) G12C/C118S protein (produced in-house by Protein Expression Laboratory, FNLCR/Leidos Biomed) in 20 mM 4-(2-hydroxyethyl)-1-piperazineethanesulfonic acid (HEPES) buffer containing 150 mM NaCl, 1 mM MgCl2, pH 7.3 was prepared freshly before assay. Ten-μL aliquots of protein were dispensed onto low volume 384-well plate, then 375 nL DMSO, and 25 nL of tested compounds from 5 mM DMSO stocks were added to appropriate wells using ECHO 555 acoustic liquid handler (Labcyte Inc.). For each reaction/assay, three blanks were prepared by mixing 10 μL of protein solution with 400 nL DMSO. The contents of the wells were carefully mixed by aspiration, and then each plate was sealed with an adhesive cover, centrifuged at 2000 g for 1 minute, and kept in the dark at room temperature until 5 min, 15 min, 30 min, or 2 h collections.
Target pretreatment: Before each assay MALDI target (Bruker MPT 384 ground steel BC) was pre-treated by pipetting on each spot 0.75 μL of saturated sinapinic acid in acetonitrile (ACN).
Sample preparation: At collection time point, 2 μL of reaction mixtures were pipetted out into 20 μL MALDI matrix solution (saturated solution of sinapinic acid in 1:1 ACN:water solution containing 0.75% trifluoroacetic acid (TFA)) deposited on 384 well polypropylene plate. Resulting solution was mixed by aspiration, centrifuged at 2000 g for 1 minute, then 1 μL aliquots were dispensed on pre-treated MALDI target using Beckman Coulter Biomek FXP 96/384-Span-8 Laboratory Automation Workstation. Finally, the MALDI target was dried under mild vacuum to produce spots with fine crystalline structure.
Measurements: MALDI-TOF measurements were performed on a Bruker Daltonics rapiflex Tissuetyper TOF-TOF mass spectrometer using linear mode and mass range from 18.6 to 21.6 kDa. Detector gain was set to 3.3× (483 V), sample rate to 5 GS/s, real time smoothing to medium (175 MHz), laser smart beam pattern was set to: “MS Thin Layer M5”, and the laser frequency was 10000 Hz. Spectra were automatically collected using custom Auto Xecute method. Laser power was auto adjusted using fuzzy control. The peak selection range was set to be between 19000 and 21500 Da. Peak evaluation uses half width parameter set to be smaller than 40 Da for processed spectrograms (centroid peak detection; smoothed by SavitzkyGolay algorithm using 7 m/z width and 2 cycles; baseline was subtracted using median algorithm with flatness 1 and median level 0.01). Fuzzy control used Proteins/Oligonucleotides protocol with minimum half width 1/10 times above threshold. Up to 40000 satisfactory shots were collected in 10000 shot steps. Dynamic termination was implemented to finish data collection when peak signal/noise ratio was reaching value of 50.
Spectra processing: Spectra were smoothed by SavitzkyGolay algorithm using 7 m/z width and three cycles. Centroid peak detection algorithm was used with signal to noise threshold set to 6, relative intensity threshold 4%, peak width 10 m/z and median baseline subtraction using flatness of 1 and median level of 0.01. Peak intensity and area under the peak were evaluated and recorded for all peaks between 19,300 Da and 21,550 Da.
Calculation of percent modification: Percent modification was calculated as a ratio of peak height for protein modified by compound to sum of peak height of remaining protein plus peak height for protein modified by compound. If multiple modifications were observed each was calculated as a ratio of peak height for given modification versus sum of peak heights for all observed protein species. Data reported in Table 5 are from 15 minutes reaction time point.

[3] = biological target: T3, GDP-loaded KRAS4b (amino acids 1-169) G12C/C118S protein (Homo sapiens, UniProt P01116, C118S/G12C); experiment: Covalent cysteine 12 modification by MALDI-TOF MS, GDP-loaded KRAS G12C; assay type: binding; conditions: 15 minutes reaction time point
T3 construct: KRAS4b (amino acids 1-169) G12C/C118S protein; made in house
In short: as §1

[4] = biological target: T4, Avi-KRAS G12C (1-169) GppNHp/RAF1 RBD-3×FLAG (52-151) (Homo sapiens, UniProt P01116, G12C); experiment: Raf1 RBD-KRAS G12C-GppNHp disruption (protein:protein interaction HTRF assay); assay type: biochemical
T4 construct: Avi-KRAS G12C (1-169) GppNHp/RAF1 RBD-3×FLAG (52-151)
In short: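 HTRF measuring disruption of 50 nM Avi-KRAS G12C (1-169) loaded with GppNHp binding RAF1 RBD-3×FLAG (52-151), in pH 7.5 Tris buffer with 5 mM MgCl2, 0.1% BSA, 10% DMSO. KRAS preincubated with compound 1 h, then RBD 1 h, then detection reagents 1 h, all at room temperature. Compound titration 30-0.02 μM; activity expressed as percent of DMSO control.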

[5] = test system: pERK in NCI-H358 cells; experiment: Cell-based pERK HTRF assay; conditions: Homo sapiens, NCI-H358, 0.5 h, 30 min incubation, read-out: pERK in NCI-H358 cell inhibition IC50
In short: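 Cells seeded at 4×10^4/well in RPMI with 10% FBS, then next day treated for 30 min with a 9-point, 3-fold series from 75 μM top concentration at 0.25% DMSO. Lysates were read for pERK by HTRF (d2/Eu cryptate antibodies) after 4–24 h at room temperature, emission at 615 nm.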

| Structure (SMILES) | GppNHp-KRAS G12C percent of modification [1] | GTP-KRAS G12C percent of modification [2] | GDP-KRAS G12C percent of modification [3] | IC50 [4] | IC50 [5] |
| --- | --- | --- | --- | --- | --- |
| C=CC(=O)N1CC[C@@H](Oc2nc(OC[C@@]34CCCN3C[C@H](F)C4)nc3cc(-c4ccc(F)c5sc(N)c(C#N)c45)c(C#N)cc23)[C@@H]1COC [Compound 128] | D (percent of modification <10%) | D (percent of modification <10%) | C (10%≤modification <50%) | > 20000 nM | > 1000 nM |
| C=CC(=O)N1CC[C@@H](Oc2nc(OC[C@@]34CCCN3C[C@H](F)C4)nc3cc(-c4ccc(F)c5sc(N)c(C#N)c45)c(C#N)cc23)[C@H]1C [Compound 107] | A (percent of modification ≥70%) | C (10%≤modification <50%) | A (percent of modification ≥70%) | ≤ 500 nM | ≤ 100 nM |
| C=CC(=O)N1CC[C@@H](Oc2nc(OC[C@@]34CCCN3C[C@H](F)C4)nc3cc(-c4ccc(F)c5sc(N)c(C#N)c45)c(F)cc23)[C@@H]1C [Compound 119] | D (percent of modification <10%) | D (percent of modification <10%) | B (50≤percent of modification <70%) | 5000 to 20000 nM | > 1000 nM |
| C=CC(=O)N1CC[C@@H](Oc2nc(OC[C@@]34CCCN3C[C@H](F)C4)nc3c(F)c(-c4ccc(F)c5sc(N)c(C#N)c45)c(Cl)cc23)[C@H]1C [Compound 94] | A (percent of modification ≥70%) | B (50≤percent of modification <70%) | A (percent of modification ≥70%) | ≤ 500 nM | ≤ 100 nM |
| C=CC(=O)N1CC[C@@H](Oc2nc(OC[C@@]34CCCN3C[C@H](F)C4)nc3c(Cl)c(-c4ccc(F)c5sc(N)c(C#N)c45)ncc23)[C@@H]1C [Compound 124] | D (percent of modification <10%) | D (percent of modification <10%) | B (50≤percent of modification <70%) | 500 to 5000 nM | 100 to 1000 nM |
| C=CC(=O)N1CC[C@@H](Oc2nc(OC[C@@]34CCCN3C[C@H](OC)C4)nc3cc(-c4ccc(F)c5sc(N)c(C#N)c45)c(C(F)(F)F)cc23)[C@H]1C [Compound 102] | A (percent of modification ≥70%) | A (percent of modification ≥70%) | A (percent of modification ≥70%) | ≤ 500 nM | ≤ 100 nM |
| C=CC(=O)N1CCC(Oc2nc(N3CC(N4CC5(CC5)C4)C3)nc3c(F)c(-c4ccc(F)c5sc(N)c(C#N)c45)c(C(F)(F)F)cc23)C1 (stereo not drawn) [Compound 78] | C (10%≤modification <50%) | D (percent of modification <10%) | C (10%≤modification <50%) | ≤ 500 nM | ≤ 100 nM |
| C=CC(=O)N1CC[C@@H](Oc2nc(OC[C@@]34CCCN3C[C@H](F)C4)nc3cc(-c4ccc(F)c5sc(N)c(C#N)c45)c(C#N)cc23)[C@H]1COC [Compound 112] | A (percent of modification ≥70%) | C (10%≤modification <50%) | A (percent of modification ≥70%) | ≤ 500 nM | ≤ 100 nM |
| C=CC(=O)N1C[C@H](Oc2nc(OC[C@@]34CCCN3C[C@H](F)C4)nc3c(F)c(-c4ccc(F)c5sc(N)c(C#N)c45)ccc23)[C@@H](F)C1 [Compound 77] | A (percent of modification ≥70%) | A (percent of modification ≥70%) | A (percent of modification ≥70%) | ≤ 500 nM | ≤ 100 nM |
| C=CC(=O)N1CC[C@@H](Oc2nc(OC[C@@]34CCCN3C[C@H](F)C4)nc3cc(-c4ccc(F)c5sc(N)c(C#N)c45)c(C(F)(F)F)nc23)[C@H]1C [Compound 91] | B (50≤percent of modification <70%) | C (10%≤modification <50%) | A (percent of modification ≥70%) | ≤ 500 nM | ≤ 100 nM |
| C=CC(=O)N1CC[C@@H](Oc2nc(OC[C@@]34CCCN3C[C@H](F)C4)nc3c(F)c(-c4ccc(F)c5sc(N)c(C#N)c45)c(C(F)(F)F)cc23)[C@@H]1CC [Compound 115] | D (percent of modification <10%) | D (percent of modification <10%) | C (10%≤modification <50%) | 500 to 5000 nM | 100 to 1000 nM |
| C=CC(=O)N1CC[C@@H](Oc2nc(OC[C@@]34CCCN3C[C@H](F)C4)nc3c(F)c(-c4ccc(F)c5sc(N)c(C#N)c45)c(C(F)(F)F)cc23)[C@H]1CF [Compound 71] | C (10%≤modification <50%) | D (percent of modification <10%) | C (10%≤modification <50%) | ≤ 500 nM | ≤ 100 nM |
| C=CC(=O)N1CC[C@@H](Oc2nc(OC[C@@]34CCCN3C[C@H](F)C4)nc3c(Cl)c(-c4ccc(F)c5sc(N)nc45)c(C(F)(F)F)cc23)C1 (atropisomer, axis not shown) [Compound 44] | A (percent of modification ≥70%) | B (50≤percent of modification <70%) | A (percent of modification ≥70%) | ≤ 500 nM | ≤ 100 nM |
| C=CC(=O)N1C[C@H](Oc2nc(OC[C@@]34CCCN3C[C@H](F)C4)nc3cc(-c4ccc(F)c5sc(N)c(C#N)c45)c(C(F)(F)F)nc23)C[C@H]1C [Compound 83] | B (50≤percent of modification <70%) | C (10%≤modification <50%) | A (percent of modification ≥70%) | ≤ 500 nM | ≤ 100 nM |
| C=CC(=O)N1CCC(Oc2nc(OC[C@@]34CCCN3C[C@H](F)C4)nc3c(F)c(-c4ccc(F)c5sc(N)c(C#N)c45)c(C(F)(F)F)cc23)C1(C)C (stereo partly drawn) [Compound 61] | C (10%≤modification <50%) | C (10%≤modification <50%) | C (10%≤modification <50%) | ≤ 500 nM | ≤ 100 nM |
